Results reported in ChEMBL document CHEMBL1201862, “PubChem BioAssay data set” (2004).
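The compound was tested at five concentrations on cells cultured in 96-well plates, with a 48-hour exposure period. Here, GI50 denotes the concentration required for 50% inhibition of growth.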 Activity calls are given as the source filed them. Cut-off read from the data, not from the text of the source: active = GI50 up to about 1.1 µM and inactive = higher.

Legend:
Test in all cases: inhibition of tumour cell growth, NCI panel, 48 h
A549 = system: A549
CCRF-CEM = system: CCRF-CEM
COLO 205 = system: COLO 205
EKVX = system: EKVX
HL-60 = system: HL-60
Hs-578T = system: Hs-578T
IGROV-1 = system: IGROV-1
M14 = system: M14
MDA-MB-231 = system: MDA-MB-231
Malme-3M = system: Malme-3M
NCI/ADR-RES = system: NCI/ADR-RES
OVCAR-4 = system: OVCAR-4
OVCAR-8 = system: OVCAR-8
RPMI-8226 = system: RPMI-8226
SF-268 = system: SF-268
SF-539 = system: SF-539
SK-OV-3 = system: SK-OV-3
U-251 = system: U-251
UACC-62 = system: UACC-62
UO-31 = system: UO-31

In the case of `CN(C)CCNC1=C(Cl)C(=O)c2c(O)ccc(O)c2C1=O`, the GI50 (A549) is reported as 2.58 µM (inactive), the GI50 (CCRF-CEM) is reported as 2.01 µM (inactive) and the GI50 (COLO 205) is reported as 1.93 µM (inactive). For the same compound, the GI50 (EKVX) was 2.97 µM (inactive), the GI50 (HL-60) was 2.38 µM (inactive) and the GI50 (Hs-578T) was 2.99 µM (inactive). The GI50 (IGROV-1) was 1.6 µM (inactive), the GI50 (M14) was 1.95 µM (inactive) and the GI50 (MDA-MB-231) was 1.38 µM (inactive). The GI50 (Malme-3M) was 2.09 µM (inactive), the GI50 (NCI/ADR-RES) was 3.12 µM (inactive) and the GI50 (OVCAR-4) was 1.87 µM (inactive). The GI50 (OVCAR-8) was 1.9 µM (inactive), the GI50 (RPMI-8226) was 2.65 µM (inactive) and the GI50 (SF-268) was 17.1 µM (inactive). For the same compound, the GI50 (SF-539) was 1.73 µM (inactive), the GI50 (SK-OV-3) was 18.2 µM (inactive) and the GI50 (U-251) was 1.84 µM (inactive). The GI50 (UACC-62) was 1.85 µM (inactive) and the GI50 (UO-31) was 2.02 µM (inactive).

`OC1NC2CC3NC(O)C(O)NC3CC2NC1O` (stereo not given) was tested, and the GI50 (A549) was > 100 µM (inactive), the GI50 (CCRF-CEM) was > 100 µM (inactive) and the GI50 (COLO 205) was > 100 µM (inactive). For the same compound, the GI50 (EKVX) was > 100 µM (inactive), the GI50 (HL-60) was > 100 µM (inactive) and the GI50 (Hs-578T) was > 100 µM (inactive). The GI50 (IGROV-1) was > 100 µM (inactive), the GI50 (M14) was > 100 µM (inactive) and the GI50 (MDA-MB-231) was > 100 µM (inactive). The GI50 (Malme-3M) was > 100 µM (inactive), the GI50 (NCI/ADR-RES) was > 100 µM (inactive) and the GI50 (OVCAR-4) was > 100 µM (inactive). The GI50 (OVCAR-8) was > 100 µM (inactive), the GI50 (RPMI-8226) was > 100 µM (inactive) and the GI50 (SF-268) was > 100 µM (inactive). For the same compound, the GI50 (SF-539) was > 100 µM (inactive), the GI50 (SK-OV-3) was > 100 µM (inactive) and the GI50 (U-251) was > 100 µM (inactive). For the same compound, the GI50 (UACC-62) was > 100 µM (inactive) and the GI50 (UO-31) was > 100 µM (inactive).

With `Oc1cc(-c2cccc3ccccc23)nc2ncccc12` the GI50 (A549) was 0.0481 µM (active), the GI50 (CCRF-CEM) was 0.0245 µM (active) and the GI50 (COLO 205) was 0.0154 µM (active). For the same compound, the GI50 (EKVX) was 0.0948 µM (active), the GI50 (HL-60) was 0.00401 µM (active) and the GI50 (Hs-578T) was 0.0524 µM (active). For the same compound, the GI50 (IGROV-1) was 0.0611 µM (active), the GI50 (M14) was 0.0159 µM (active) and the GI50 (MDA-MB-231) was 0.172 µM (active). The GI50 (Malme-3M) was 0.00225 µM (active), the GI50 (NCI/ADR-RES) was 0.0206 µM (active) and the GI50 (OVCAR-4) was 0.0542 µM (active). For the same compound, the GI50 (OVCAR-8) was 0.05 µM (active), the GI50 (RPMI-8226) was 0.0243 µM (active) and the GI50 (SF-268) was 0.0201 µM (active). For the same compound, the GI50 (SF-539) was 0.0197 µM (active), the GI50 (SK-OV-3) was 0.0176 µM (active) and the GI50 (U-251) was 0.0211 µM (active). The GI50 (UACC-62) was 0.0102 µM (active) and the GI50 (UO-31) was 0.0402 µM (active).

In the case of `COC(=O)c1c(OC(C)=O)ccc2c1c1c(OC(C)=O)c3ccccc3c(OC(C)=O)c1n2Cc1cc(OC)cc(OC)c1`, the GI50 (A549) is reported as 6 µM (inactive), the GI50 (CCRF-CEM) is reported as 6.76 µM (inactive) and the GI50 (COLO 205) is reported as 26.1 µM (inactive). The GI50 (EKVX) was 2.58 µM (inactive), the GI50 (HL-60) was 7.78 µM (inactive) and the GI50 (Hs-578T) was 14.2 µM (inactive). For the same compound, the GI50 (IGROV-1) was 9.1 µM (inactive), the GI50 (M14) was 5.11 µM (inactive) and the GI50 (MDA-MB-231) was 16.3 µM (inactive). The GI50 (Malme-3M) was 12 µM (inactive), the GI50 (NCI/ADR-RES) was 5.78 µM (inactive) and the GI50 (OVCAR-4) was 4.41 µM (inactive). The GI50 (OVCAR-8) was 4.93 µM (inactive), the GI50 (RPMI-8226) was 3.94 µM (inactive) and the GI50 (SF-268) was 5.09 µM (inactive). The GI50 (SF-539) was 3.09 µM (inactive), the GI50 (SK-OV-3) was 9.68 µM (inactive) and the GI50 (U-251) was 5.5 µM (inactive). The GI50 (UACC-62) was 4.41 µM (inactive) and the GI50 (UO-31) was 6.76 µM (inactive).

For `CC(C)C(OC(=O)c1cc(NC(=S)c2ccccc2)ccc1Cl)C(C)C`, the GI50 (A549) was 21 µM (inactive), the GI50 (CCRF-CEM) was 14.9 µM (inactive) and the GI50 (COLO 205) was 16.1 µM (inactive). For the same compound, the GI50 (EKVX) was 12.9 µM (inactive), the GI50 (HL-60) was 10.6 µM (inactive) and the GI50 (Hs-578T) was 21.1 µM (inactive). For the same compound, the GI50 (IGROV-1) was 33 µM (inactive), the GI50 (M14) was 31.7 µM (inactive) and the GI50 (MDA-MB-231) was 20.2 µM (inactive). The GI50 (Malme-3M) was 20.4 µM (inactive), the GI50 (NCI/ADR-RES) was 16.3 µM (inactive) and the GI50 (OVCAR-4) was 17.6 µM (inactive). For the same compound, the GI50 (OVCAR-8) was 22.9 µM (inactive), the GI50 (RPMI-8226) was 13.3 µM (inactive) and the GI50 (SF-268) was 23 µM (inactive). The GI50 (SF-539) was 24.4 µM (inactive), the GI50 (SK-OV-3) was 32.4 µM (inactive) and the GI50 (U-251) was 19.1 µM (inactive). For the same compound, the GI50 (UACC-62) was 11.8 µM (inactive) and the GI50 (UO-31) was 11.4 µM (inactive).

In the case of `CN(c1ccccc1)S(=O)(=O)c1ccccc1[N+](=O)[O-]`, the GI50 (A549) is reported as > 100 µM (inactive), the GI50 (CCRF-CEM) is reported as 44.3 µM (inactive) and the GI50 (COLO 205) is reported as > 100 µM (inactive). For the same compound, the GI50 (EKVX) was > 100 µM (inactive), the GI50 (HL-60) was > 100 µM (inactive) and the GI50 (Hs-578T) was > 100 µM (inactive). The GI50 (IGROV-1) was > 100 µM (inactive), the GI50 (M14) was > 100 µM (inactive) and the GI50 (MDA-MB-231) was 67.9 µM (inactive). For the same compound, the GI50 (Malme-3M) was > 100 µM (inactive), the GI50 (NCI/ADR-RES) was > 100 µM (inactive) and the GI50 (OVCAR-4) was 98.4 µM (inactive). For the same compound, the GI50 (OVCAR-8) was > 100 µM (inactive), the GI50 (RPMI-8226) was 37.8 µM (inactive) and the GI50 (SF-268) was > 100 µM (inactive). For the same compound, the GI50 (SF-539) was > 100 µM (inactive), the GI50 (SK-OV-3) was > 100 µM (inactive) and the GI50 (U-251) was > 100 µM (inactive). The GI50 (UACC-62) was > 100 µM (inactive) and the GI50 (UO-31) was > 100 µM (inactive).
